Data reported in article PMC7358525, “Characterization of PF-6142, a Novel, Non-Catecholamine Dopamine Receptor D1 Agonist, in Murine and Nonhuman Primate Models of Dopaminergic Activation” (Frontiers in Pharmacology, 2020).

Legend:
human D1 receptor = conditions: stated in discussion, no data or reference printed; cited from earlier work
[1] = system: MK-801-disrupted paired-pulse facilitation; experiment: Paired-pulse facilitation (PPF), CA1/subiculum to mPFC, urethane-anesthetized rat; assay type: in vivo
Method: Experiments were performed on n=10 adult male Sprague-Dawley rats (275–305 g) under urethane anesthesia (1.5 g/kg, i.p.). The femoral vein was cannulated for i.v. administration of drugs. A stimulation electrode was placed in the CA1/subiculum region (coordinates: A-P = +6.3 mm, M–L = +5.2 mm, D-V = +8.0 mm) using stereotactic methods and unilateral local field potential (LFP) was recorded by a metal monopolar macroelectrode placed into the medial PFC (mPFC; coordinates: A-P = +3.0 mm, M-L = +0.6 mm, D-V = +5.0 mm). […] Evoked responses to the first and the second stimuli were identified (P1 and P2, respectively) and the amount of PPF determined by the formula: (P2 amplitude/P1 amplitude). Waveform averages used to calculate PPF consisted of 60 consecutive stimuli. Five minutes were allowed between administration of each drug dose and the starting of the subsequent average of each 10-min period after each cumulative dose (0.1–1 mg/kg, IV). Disruption in power of LFP delta activity was measured as the percentage of power in low frequency (0–1.8 Hz) irregular activity in the total (0–4 Hz) delta power range. LFP power spectra were determined during periods concurrent with waveform averages and PPF calculation. Statistical significance was determined by means of two-tailed paired Student’s t-test.

EEG oscillation power = experiment: Rat quantitative electroencephalography, freely moving; assay type: in vivo; conditions: first 4 h
Excerpt: Model 4ET telemetry device components (Data Sciences International, St Paul, MN, USA) were bilaterally placed in subcutaneous pockets on the dorsal flank of adult male Sprague-Dawley rats (200–400 grams). Two pairs of leads were implanted superficially to burr holes drilled over the frontal cortex (stainless steel screws, Plastics One, Roanoke, VA at coordinates: A-P = +1.5 mm, M-L = 1.5 mm) and parietal cortex (coordinates: A-P = −3.7 mm, M-L = −2.2 mm), and the cerebellum bilaterally to be used as ground and reference for electroencephalographic (EEG) recordings. A stainless-steel wire (Plastics One, Roanoke, VA) was implanted into the neck muscle to monitor electromyogram (EMG). All recordings were performed inside the home cages of animals using RPC-2 telemetry receivers (Data Sciences International, St. Paul, MN) at a sampling rate of 500 Hz for data acquisition. Baseline data, while on vehicle, were obtained for 24 h prior to compound administration. PF-6142 (1.0 or 5.6 mg/kg, s.c.) was administered acutely following the baseline day.
Raw EEG traces were analyzed using custom scripts in MATLAB (The Mathworks, Natick, MA, version 7.8 (R2009a)) to evaluate spectral changes between treatment groups. Raw EEG data were read into the MATLAB software, segmented to match that of the polysomnography (PSG) data (see below) and fast Fourier transforms (FFTs) were performed. Only data collected on the parietal lead were the subject of statistical analyses. PSG analysis was applied to all EEG/EMG data and utilized an in-house algorithm developed in LabView (National Instruments, Austin TX) as previously described ([Harvey et al., 2013]).
Relative power data in each band aggregated over 2 h-long time bins, while on drug, were normalized to baseline levels in corresponding time bins relative to dosing. For statistical analysis the R software was used. The effects of two within factors, dose and time, on cumulative time spent in three stages, awake, REM, and NREM sleep were assessed using generalized linear mixed model. The model specification explicitly accounted for a crossover design with repeated measures by introducing auxiliary factors, day, treatment sequence, and day by time product. To account for correlations within subjects, we employed a first order autoregressive scheme, which assumes that correlations decay exponentially with the lag between the measurements. The model was fitted using the method of restricted maximum likelihood. Significant findings were followed by least significant difference tests for pairwise differences across doses and across doses at fixed times for treatment and treatment by time factors, respectively. Tukey-Kramer procedure was used to adjust for multiple hypothesis testing. For all statistical tests, p < 0.05 was considered significant. The same fixed factors and type of statistical model were used to explain cumulative power within EEG power bands; the power was log transformed before the analysis.

[2] = Plasma exposure (PK), mouse; assay type: in vivo; conditions: 5.6 mg/kg SC, 1 h
Method: Across the set of experiments, PK was either collected from satellite animals or in separate, dedicated studies. In addition to plasma PK, exposures were obtained in brain tissue for rat and mouse, and plasma protein binding and brain tissue binding were measured. Using the measured exposures, partitioning, and binding parameters, and the […]

[3] = system: prepulse inhibition of startle; experiment: Mouse prepulse inhibition (PPI) and acoustic startle; assay type: in vivo
Method: Drug and behaviorally naïve adult male C57BL/6J mice (9–11 weeks of age; n=8 per dose group) were used for PPI experiments. Subjects were tested individually in SR-Lab acoustic startle chambers (San Diego Instruments, San Diego CA, USA) equipped with a restrainer mounted atop a piezoelectric accelerometer which measured transduced movement in response to the presentation of audio stimuli presented through a speaker mounted 20 cm above the animal. Subjects were acclimated to an anteroom adjacent to the testing room at minimum 60 min prior to testing. Test sessions began with a 5 min acclimation period to background noise (65 dB) followed by presentation of six randomized repetitions of the 120 dB startle stimulus (40 ms duration) presented alone or paired in combination with a pre-pulse stimulus of 68, 72, or 74 db (20 msec in duration) presented 80 msec prior to the 120 dB startle stimulus, which was equivalent to +3, +7, and +9 db over background noise, respectively. Data were also recorded for no stimulus values to evaluate background level of response. The inter-trial interval between stimulus presentations was randomized and ranged from 10 to 20 s. Test compounds were administered 30 min (s.c.) prior to testing. […] Percent PPI was calculated for each individual subject as the relative change in the 120 dB startle response in the presence of each prepulse intensity using the formula: 100-((prepulse-pulse)/pulse)*100 as previously described ([Ralph-Williams et al., 2003]).
The experiment was analyzed using a two-way mixed model ANOVA (lme4 library in R software). The model included prepulse stimulus intensity levels, treatment (as all combinations of pre-treatment and treatment), and their interaction as fixed factors and random intercept, random slope for each animal as random factors. […] In order to adjust for multiple hypothesis testing we used false discover rate method which controls the expected proportion of false discoveries among the rejected hypotheses. For all statistical tests, p < 0.05 between groups was considered significant.

[4] = significant only at 5.6 mg/kg s.c.

SMILES: Cc1cc(Oc2nccc3occc23)ccc1-c1c(C)ncc2nccn12 [PF-6142]
- affinity (human D1 receptor): moderate affinity
- PPF values vs MK-801 challenge ([1]; PF-6142 1.0 mg/kg IV cumulative (p=0.006)): significantly higher PPF values
- effect on MK-801-induced changes in PPF after SCH-23390 pretreatment ([1]; PF-6142 1.0-3.0 mg/kg IV cumulative (3 mg/kg: p=0.89)): no significant effect
- ED50 for reversal of MK-801-induced effects on PPF ([1]; cumulative IV, Spearman-Karber, 95% confidence levels 0.21-0.57 mg/kg, n=5): 0.35 mg/kg
- delta oscillation power vs vehicle (EEG oscillation power; 5.6 mg/kg s.c.): significant delta power decrease
- power in other studied frequency bands (theta, alpha) (EEG oscillation power; 1.0 and 5.6 mg/kg s.c.): not found to change significantly
- beta oscillation power (EEG oscillation power; [4]): significant increase
- gamma oscillation power (EEG oscillation power; [4]): significant increase
- total power in the EEG signal (EEG oscillation power; [4]): decreased significantly
- PF-6142 plasma concentration [2]: 332 ng/mL
- effect on %PPI in combination with risperidone ([3]; PF-6142 1.78 mg/kg + risperidone, 3, 7, 9 dB prepulse): no effect
- %PPI vs vehicle ([3]; PF-6142 1.78 mg/kg alone, significant only at 9 dB prepulse intensity (p=0.029)): modest impairments in %PPI
- % PPI, PF-6142 alone (pilot experiments, Figure 4C) ([3]; adult C57BL/6J mice): modest non-significant reductions in % PPI
- effect on risperidone (0.56 mg/kg)-reduced startle responses ([3]; in the presence of PF-6142): not altered
